Assay results as given in US20120302636A1, “METHOD OF TREATING A DISORDER ASSOCIATED WITH MTP” (priority 2009, published 2012).
Like-named read-outs stand apart in the source and are kept apart here.

Legend:
[1] = Example 3: pharmacokinetics; type: in vivo, human; settings: both active groups
[2] = Example 5: pharmacokinetics; type: in vivo, human
Procedure: Fifty-two Japanese patients with hyperlipidemia (LDL-C between 140 and 220 mg/dL; TG≦400 mg/dL) participated in the study. […] One group received a fixed dose of 2 mg per tablet through the entire study. The other group received escalating doses of 0.5 mg (weeks 1-4), 1 mg (weeks 5-8), and 2 mg (weeks 9-12). For the efficacy analysis, 50 subjects were observed (25 in the fixed-dose group and 25 in the dose escalation group).
The objective of this study was preliminary evaluation of the efficacy (based on serum lipid levels), safety, and pharmacokinetics of the compound of formula (I) administered orally twice daily after breakfast and supper for 12 weeks as a fixed dose (4 mg/day) or escalating dose (1 mg/day, 2 mg/day and 4 mg/day) regimen in patients with hyperlipidemia.

[3] = Example 7: ascending dose study in obese subjects, pharmacokinetics
Procedure: This example involved a clinical study of the compound of formula (I), which was a randomized, double-blind, placebo-controlled, ascending dose study to evaluate the safety, tolerability and pharmacokinetics/pharmacodynamics of the compound of formula (I) tablets administered twice daily for two weeks in obese subjects.
The subjects were separated into four arms of nine (one with ten) test subjects (which were administered the compound of formula (I)) and three placebo subjects.

[4] = Example 6: pharmacokinetics; type: in vivo, human
Description: Originally, the study was planned as 4 sequential cohorts of healthy male Caucasian subjects (Cohorts 1 to 4) followed by a cohort of male Caucasian patients with elevated triglycerides (HTG patients, Cohort 5). An additional cohort of healthy male Caucasian subjects (Cohort 4.1) was enrolled into the study (6 cohorts in total). The cohorts were as follows: Cohorts 1 to 4.1 had healthy Caucasian males, aged 18-45 years with a body weight of 60-100 kg and body mass index (BMI) between 19-28 kg/m^2 at screening and fasting triglycerides less than 1.69 mmol/L (less than 150 mg/dL) at the screening visit and Day-3. Cohort 5 had Caucasian males, aged 18-50 years with a body weight of 60-115 kg and BMI less than 35 kg/m^2 at screening and with elevated fasting triglycerides (TG≧1.69 mmol/L and <5.62 mmol/L; ≧150 mg/dL and <500 mg/dL) at the screening visit and Day-3.
The planned treatment for Cohorts 1 to 4 was twice daily administration of 5 mg, 10 mg or 15 mg the compound of formula (I)/placebo, or once daily administration of 30 mg the compound of formula (1)/placebo. […] As only the compound of formula (I) 5 mg capsules were supplied for this study, doses were administered once daily to determine the maximum tolerated dose, and the planned doses for each subsequent cohort were amended based on the safety and tolerability data obtained from the preceding cohort. The dose level and dosing schedule planned for the patients in Cohort 5 was determined by the maximum tolerated dose and dosing schedule as reported from the planned Cohorts 1 to 4.1.
Twelve healthy male Caucasian subjects were enrolled in each of Cohorts 1 to 4.1; dose cohorts were randomized in a ratio 9:3 to receive the compound of formula (I) or placebo, respectively, at the dose level associated with that cohort. Twelve male Caucasian patients with elevated triglycerides were randomized in a ratio of 8:4 to receive the compound of formula (I) or placebo, respectively, at the maximum tolerated dose level and dosing schedule.

[5] = Example 2: plasma and urine pharmacokinetics; type: in vivo, human
Procedure: Each tablet contained 5 mg (BID), 10 mg (QD), 20 mg (QD), or 30 mg (QD).

[6] = in vivo
Description: This example involved a clinical study of the compound of formula (I), which was a randomized, double-blind, placebo-controlled, parallel group study to evaluate the efficacy of the compound of formula (I) administered twice daily for twelve weeks in obese subjects.

[7] = Example 1: plasma and urine concentrations by LC/MS/MS
MTP = MTP (Homo sapiens, UniProt P55157)
MTP, sequence (P55157 19-894, species assumed): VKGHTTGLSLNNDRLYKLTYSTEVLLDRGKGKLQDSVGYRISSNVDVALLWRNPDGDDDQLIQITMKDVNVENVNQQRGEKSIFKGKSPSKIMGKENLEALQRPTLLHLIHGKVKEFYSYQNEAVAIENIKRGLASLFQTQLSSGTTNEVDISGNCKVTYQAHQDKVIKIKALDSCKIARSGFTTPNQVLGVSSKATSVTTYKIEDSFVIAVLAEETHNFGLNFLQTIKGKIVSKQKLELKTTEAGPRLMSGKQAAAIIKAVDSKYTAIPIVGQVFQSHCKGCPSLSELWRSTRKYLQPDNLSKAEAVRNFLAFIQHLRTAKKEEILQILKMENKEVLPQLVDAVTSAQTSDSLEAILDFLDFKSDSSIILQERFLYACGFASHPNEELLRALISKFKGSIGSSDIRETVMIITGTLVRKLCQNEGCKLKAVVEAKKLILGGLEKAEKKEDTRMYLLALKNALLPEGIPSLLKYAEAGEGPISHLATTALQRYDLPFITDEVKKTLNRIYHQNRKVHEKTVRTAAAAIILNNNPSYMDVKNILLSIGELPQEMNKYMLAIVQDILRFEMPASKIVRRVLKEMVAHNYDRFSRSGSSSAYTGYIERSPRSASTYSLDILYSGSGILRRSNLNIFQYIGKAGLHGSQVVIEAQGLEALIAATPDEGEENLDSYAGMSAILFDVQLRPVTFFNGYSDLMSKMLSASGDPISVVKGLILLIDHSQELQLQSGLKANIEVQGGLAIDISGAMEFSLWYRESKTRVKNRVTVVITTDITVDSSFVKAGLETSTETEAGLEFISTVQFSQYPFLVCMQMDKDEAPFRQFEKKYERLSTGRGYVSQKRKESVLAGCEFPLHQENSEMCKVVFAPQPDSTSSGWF
MTP, sequence (P07237 18-508 partner, species assumed): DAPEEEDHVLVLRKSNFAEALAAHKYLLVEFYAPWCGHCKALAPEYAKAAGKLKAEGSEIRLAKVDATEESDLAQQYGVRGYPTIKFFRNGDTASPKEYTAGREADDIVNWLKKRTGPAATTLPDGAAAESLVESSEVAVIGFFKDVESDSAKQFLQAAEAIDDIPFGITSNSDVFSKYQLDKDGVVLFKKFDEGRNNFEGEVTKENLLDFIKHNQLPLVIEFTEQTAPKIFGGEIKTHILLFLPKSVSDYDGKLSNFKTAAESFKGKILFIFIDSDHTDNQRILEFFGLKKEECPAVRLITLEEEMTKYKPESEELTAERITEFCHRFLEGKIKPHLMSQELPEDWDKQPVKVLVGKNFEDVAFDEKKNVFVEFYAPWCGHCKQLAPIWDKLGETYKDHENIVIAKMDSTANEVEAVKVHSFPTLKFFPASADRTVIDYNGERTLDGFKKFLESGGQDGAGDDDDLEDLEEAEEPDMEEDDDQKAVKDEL

Compound: CN(C)C(=O)c1cc(CC(=O)O)ccc1NC(=O)c1ccccc1-c1ccc(C(F)(F)F)cc1 [metabolite M1, 2-(3-(dimethylcarbamoyl)-4-(4′-(trifluoromethyl)biphenyl-2-ylcarboxamido)phenyl)acetic acid]
- plasma metabolite M1 [1]: quantifiable
- mean Cmin ([2]; dose escalation group, Week 10): 12.15 ng/mL
- mean Cmin ([2]; dose escalation group, Week 10, females): 12.06 ng/mL
- mean Cmin ([2]; dose escalation group, Week 10, males): 12.28 ng/mL
- mean Cmin ([2]; dose escalation group, Week 12): 13.47 ng/mL
- mean Cmin ([2]; dose escalation group, Week 12, females): 15.28 ng/mL
- mean Cmin ([2]; dose escalation group, Week 12, males): 10.76 ng/mL
- mean Cmin ([2]; fixed-dose group, Week 10): 12.20 ng/mL
- mean Cmin ([2]; fixed-dose group, Week 12): 10.74 ng/mL
- mean t1/2 ([3]; 1 mg group): 70.1 h
- time to reach steady-state ([3]; 1 and 2.5 mg groups): 7 days
- Cmax and AUC0-τ dose proportionality (M1) ([3]; 1 to 5 mg): dose proportional increase
- time to reach steady-state ([3]; 3.5 and 5 mg groups): 5 days
- mean apparent terminal half-life ([4]; 5 mg BID, healthy): approximately 27 h
- systemic availability (AUC0-τ and Cmax) in patients vs subjects with normal triglycerides ([4]; 5 mg, Cohort 5 vs Cohort 1): appeared to be greater
- mean apparent terminal half-life ([4]; 5 mg, HTG patients): approximately 30 h
- time to steady-state ([4]; 5 to 20 mg QD and BID, healthy subjects and patients): ~8 days
- extent of systemic exposure, dose proportionality ([4]; 5 to 20 mg QD, healthy): greater than dose-proportional
- urinary recovery up to 72 h post-last dose ([4]; 14 days administration, adjusted for molecular weight): up to 20 % of the total administered dose
- urinary recovery ([4]; first administration): less than 8 % of the administered dose
- Cmax and AUC0-24hr dose proportionality (M1) ([5]; 10, 20, 30 mg QD, initial dose Day 1): greater than a dose-proportional
- Cmin of the metabolite M1 ([5]; Day 2 to 14, all groups): quantifiable
- plasma metabolite M1 ([5]; after initial dose on Day 1, all groups): quantifiable
- metabolite M1 in urine ([5]; all groups): excreted in urine
- Cmax and AUC dose proportionality (M1) ([5]; final dose on Day 14): dose-proportional
- mean trough concentration of M1 [6]: increased in a dose-related manner
- mean Cmin ([7]; 5 mg group, Day 2): 8.33 ng/mL
- mean Cmin ([7]; 5 mg group, Day 6): 25.97 ng/mL
- mean Cmin relative to Day 2 ([7]; 5 mg group, Day 6): 3.12 times
- mean Cmin ([7]; 15 mg group, Day 2): 33.57 ng/mL
- mean Cmin ([7]; 15 mg group, Day 8): 181.90 ng/mL
- mean Cmin relative to Day 2 ([7]; 15 mg group, Day 8): 5.42 times
- excretion in urine (metabolite) ([7]; 5 and 15 mg groups): excreted in urine in all subjects
- detection of metabolite in plasma ([7]; all subjects receiving compound): detected in plasma of all subjects
- MTP inhibitory activity (MTP): no MTP inhibitory activity
- MTP inhibitory activity (MTP; listed as M1): inactive
